This is an account of results in patent publication US20230218557A1, “A FATTY ACID BASED COMPOSITION FOR TREATMENT AND/OR PREVENTION OF ENVELOPED-VIRUS RELATED INFECTIONS” (priority 2020, published 2023).

The test system of test [1] is SARS-CoV-2 virus (WA1/2020) strain. In kind it is cell-based. The conditions noted are these: for antiviral activity (in words): incubated with SARS-CoV-2; for % viral reduction: virus pre-incubated 10 minutes with sample (conc./dilution per Table 2A), diluted four times, added to vero cells, 48/72 hours, supernatant plaque assay.
A further test concerns viral particles. The conditions noted are these: electron microscopy; cited from earlier work.

Turning to `CC/C=C\C/C=C\C/C=C\CCCCCCCC(=O)O` [ALA, α-linolenic acid], in test [1], the “antiviral activity (in words)” value was “showed antiviral activity” and the “% viral reduction” value came to 97.13%.

In the case of Triton X100 [reference compound], the “% viral reduction” value in test [1] is given as 95.23%.

`CCCCC/C=C\C/C=C\C/C=C\CCCCC(=O)O` [GLA, gamma-linolenic acid]: in test [1], the “antiviral activity (in words)” value was “showed antiviral activity” and the “% viral reduction” value is listed as 96.98%. The “virucidal effect (in words)” value in the test with viral particles was “lyse and completely disintegrate viral particles”.

In the case of `CCCCC/C=C\C/C=C\CCCCCCCC(=O)O` [LA, Linoleic acid], in test [1], the “antiviral activity (in words)” value is recorded as “showed antiviral activity” and the “% viral reduction” value amounted to 97.42%. In addition, the “virucidal effect (in words)” value in the test on viral particles was “lyse and completely disintegrate viral particles”.
